Target: T1, C5aR (Homo sapiens, UniProt P21730)
T1 construct: U937 cells are a monocytic cell line which express C5aR; host or cells: U937 cells (cAMP-treated overnight)
T1 sequence (P21730 1-350): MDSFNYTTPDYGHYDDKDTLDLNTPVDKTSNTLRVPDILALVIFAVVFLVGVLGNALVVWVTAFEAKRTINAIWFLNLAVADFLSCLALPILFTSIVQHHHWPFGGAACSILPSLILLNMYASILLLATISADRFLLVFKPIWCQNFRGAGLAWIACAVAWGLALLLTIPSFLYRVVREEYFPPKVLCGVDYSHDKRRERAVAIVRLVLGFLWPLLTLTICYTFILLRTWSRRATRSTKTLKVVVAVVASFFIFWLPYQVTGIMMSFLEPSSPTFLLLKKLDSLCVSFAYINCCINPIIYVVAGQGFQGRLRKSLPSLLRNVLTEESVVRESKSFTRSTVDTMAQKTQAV
Experiment: Chemotaxis assay using U937 cells (C5a-induced migration)
Assay type: cell-based
Details: chemotaxis (migration) of U937 cells towards C5a; read-out: Mig IC50
Description: U937 cells are a monocytic cell line which express C5aR, and are available from ATCC (VA). These cells were cultured as a suspension in RPMI-1640 medium supplemented with 2 mM L-glutamine, 1.5 g/L sodium bicarbonate, 4.5 g/L glucose, 10 mM HEPES, 1 mM sodium pyruvate, and 10% FBS. Cells were grown under 5% CO2/95% air, 100% humidity at 37° C. and subcultured twice weekly at 1:6 (cells were cultured at a density range of 1×10^5 to 2×10^6 cells/mL) and harvested at 1×10^6 cells/mL. Prior to assay, cells are treated overnight with 0.5 mM of cyclic AMP (Sigma, OH) and washed once prior to use. cAMP treated U937 cells can be used in C5aR ligand binding and functional assays.
Optionally, compounds may be further assayed for their ability to inhibit chemotaxis in cells. Chemotaxis assays are performed using 5 μm pore polycarbonate, polyvinylpyrrolidone-coated filters in 96-well chemotaxis chambers (Neuroprobe; Gaithersburg, Md.) using chemotaxis buffer (Hank's balanced salt solution (HBSS) and 1% FBS). C5aR ligands (i.e., C5a, R&D Systems; Minneapolis, Minn.) are use to evaluate compound mediated inhibition of C5aR mediated migration. Other chemokines (i.e., SDF-1α; R&D Systems; Minneapolis, Minn.) are used as specificity controls. The lower chamber is loaded with 29 μl of chemokine (i.e., 0.03 nM C5a) and varying amounts of compound; the top chamber contains 100,000 U937 or neutrophil cells in 20 μl. The chambers are incubated 1.5 hours at 37° C., and the number of cells in the lower chamber quantified either by direct cell counts in five high powered fields per well or by the CyQuant assay (Molecular Probes), a fluorescent dye method that measures nucleic acid content and microscopic observation.
The compounds in Table 1, below, were prepared using the methods described above. Characterization data is provided for each compound listed. Activity is provided as follows for the chemotaxis assay using U937 cells as described herein (Example 7): +, 500 nM<IC50; ++, 50 nM<IC50<500 nM; +++, 5 nM<IC50<50 nM; and ++++, IC50<5 nM.

| Structure (SMILES) | IC50 [nM] |
| --- | --- |
| Cc1ccc(C(C)(C)C)cc1N1Cc2nn(-c3c(C)cccc3C)c(-c3ccc(N)cc3)c2C1 [Compound 1.051] | < 5 |
| Cc1cc(-c2c3c(nn2-c2c(C)cccc2C)CN(c2cc(C(C)(C)C)ccc2C)C3=O)ccc1C(N)=O [Compound 1.025] | > 500 |
| COc1cccc(C)c1-n1nc2c(c1-c1ccc(NC(N)=O)cc1)CN(c1ccccc1C(C)C)C2 [Compound 1.044] | 50 to 500 |
| CCc1cccc(CC)c1-n1nc2c(c1-c1cc(C)c(NC(N)=O)cc1F)CN(Cc1ccc(C(F)(F)F)cc1C(F)(F)F)C2(C)C [Compound 1.003] | < 5 |
| Cc1cccc(C)c1-n1nc2c(c1-c1ccc(NC(N)=O)cc1)CN(CC(C)(C)C)C2(C)C [Compound 1.019] | 50 to 500 |
| Cc1cccc(C)c1-n1nc2c(c1-c1ccc(NC(N)=O)cc1)CN(c1ccccc1C(C)C)C2 [Compound 1.045] | 50 to 500 |
| Cc1ccc(C(C)(C)C)cc1N1Cc2nn(-c3c(C)cccc3C)c(-c3ccc(NC(N)=O)cc3)c2C1 [Compound 1.049] | 50 to 500 |
| CCc1cccc(CC)c1-n1nc2c(c1-c1cc(F)c(NC(N)=O)cc1F)CN(Cc1cc(C(F)(F)F)ccc1C(F)(F)F)C2(C)C [Compound 1.017] | < 5 |
| CCCOc1cccc(C)c1-n1nc2c(c1-c1ccc(N)cc1)CN(c1cc(C(C)(C)C)ccc1C)C2 [Compound 1.053] | 5 to 50 |
| Cc1cccc(C)c1-n1nc2c(c1-c1ccc(N)cc1)CN(c1ccccc1C(C)C)C2 [Compound 1.046] | 50 to 500 |
| Cc1cc(-c2c3c(nn2-c2c(C)cccc2C)C(=O)N(c2cc(C(C)(C)C)ccc2C)C3)ccc1C(N)=O [Compound 1.024] | 5 to 50 |
| Cc1ccc(C(C)(C)C)cc1N1Cc2nn(-c3c(C)cccc3OCC(C)C)c(-c3ccc(C(N)=O)cc3)c2C1 [Compound 1.041] | < 5 |
| CCOc1cccc(C)c1-n1nc2c(c1-c1ccc(N)cc1)CN(c1cc(C(C)(C)C)ccc1C)C2 [Compound 1.054] | 5 to 50 |
| Cc1ccc(C(C)(C)C)cc1N1Cc2nn(-c3c(C)cccc3C)c(-c3ccc(C(=O)O)cc3)c2C1 [Compound 1.043] | > 500 |
| CCc1cccc(CC)c1-n1nc2c(c1-c1cc(F)c(NC(N)=O)cc1C)CN(Cc1ccccc1C(F)(F)F)C2(C)C [Compound 1.009] | < 5 |
| Cc1ccc(C(C)(C)C)cc1N1Cc2c(nn(-c3c(C)cccc3C)c2-c2ccc(C(N)=O)cc2)C1=O [Compound 1.030] | 5 to 50 |

| Structure (SMILES) | IC50 [nM] |
| --- | --- |
| CNc1ccc(-c2c3c(nn2-c2c(C)cccc2C)CN(c2cc(C(C)(C)C)ccc2C)C3)cc1 [Compound 1.050] | > 500 |
| CCc1cccc(CC)c1-n1nc2c(c1-c1ccc(C(N)=O)c(F)c1)CN(Cc1ccc(C(F)(F)F)cc1C(F)(F)F)C2(C)C [Compound 1.005] | > 500 |
| CCc1cccc(CC)c1-n1nc2c(c1-c1cc(F)c(NC(N)=O)cc1F)CN(CC1CCOCC1)C2(C)C [Compound 1.015] | < 5 |
| Cc1cccc(C)c1-n1nc2c(c1-c1ccc(C(N)=O)cc1)CN(C(=O)OC(C)(C)C)C2 [Compound 1.038] | > 500 |
| Cc1cc(C(N)=O)ccc1-c1c2c(nn1-c1c(C)cccc1C)C(=O)N(c1cc(C(C)(C)C)ccc1C)C2 [Compound 1.023] | 50 to 500 |
| Cc1cccc(C)c1-n1nc2c(c1-c1cc(F)c(NC(N)=O)cc1F)CN(Cc1ccccc1C(F)(F)F)C2(C)C [Compound 1.006] | < 5 |
| Cc1cccc(C)c1-n1nc2c(c1-c1ccc(C(N)=O)cc1)CN(c1cccc(C(C)(C)C)n1)C2 [Compound 1.027] | > 500 |
| Cc1ccc(C(C)(C)C)cc1N1Cc2nn(-c3c(C)cccc3C)c(-c3ccc(C(C)(C)O)cc3)c2C1 [Compound 1.048] | 50 to 500 |
| CCc1cccc(CC)c1-n1nc2c(c1-c1cc(F)c(NC(N)=O)cc1F)CN(Cc1ccc(C(F)(F)F)cc1C(F)(F)F)C2(C)C [Compound 1.018] | < 5 |
| Cc1ccc(C(C)(C)C)cc1N1Cc2c(nn(-c3c(C)cccc3C)c2-c2ccc(NC(N)=O)cc2)C1=O [Compound 1.021] | > 500 |
| Cc1cccc(C)c1-n1nc2c(c1-c1ccc(NC(N)=O)cc1)CN(CC(C)(C)C)C2 [Compound 1.022] | 50 to 500 |
| Cc1cccc(C)c1-n1nc2c(c1-c1ccc(C(N)=O)cc1)CN(C(=O)c1ccccc1)C2 [Compound 1.037] | > 500 |
| Cc1cccc(C)c1-n1nc2c(c1-c1cc(F)c(NC(N)=O)cc1F)CN(Cc1ccc(C(F)(F)F)cc1C(F)(F)F)C2(C)C [Compound 1.007] | < 5 |
| CCc1cccc(CC)c1-n1nc2c(c1-c1cc(OC)c(NC(N)=O)cc1F)CN(Cc1ccc(C(F)(F)F)cc1C(F)(F)F)C2(C)C [Compound 1.002] | < 5 |
| Cc1cccc(C)c1-n1nc2c(c1-c1ccc(C(N)=O)cc1)CN(C(=O)c1ccc(C(C)(C)C)cc1)C2 [Compound 1.036] | > 500 |
| Cc1cc(F)c(C(C)C)cc1N1Cc2nn(-c3c(C)cccc3C)c(-c3ccc(C(N)=O)cc3)c2C1 [Compound 1.035, 4-(2-(2,6-dimethylphenyl)-5-(4-fluoro-5-isopropyl-2-methylphenyl)-2,4,5,6-tetrahydropyrrolo[3,4-c]pyrazol-3-yl)benzamide] | 5 to 50 |
